Test results reported in patent US20090232838A1, “Ligands of melanocortin receptors” (priority 2005, published 2009).

Experiments:
hMC5-R [1] = biological target: T1, hMC5-R (Homo sapiens, UniProt P33032); test: cyclic AMP bioassay, hMC5-R; type: cell-based
T1 construct: expressed in transfected cells; host or cells: CHO-K1

hMC4-R [2] = biological target: T2, hMC4-R (Homo sapiens, UniProt P32245); test: cyclic AMP bioassay, hMC4-R; type: cell-based
T2 construct: expressed in transfected cells; host or cells: CHO-K1
T2 sequence (P32245 whole entry): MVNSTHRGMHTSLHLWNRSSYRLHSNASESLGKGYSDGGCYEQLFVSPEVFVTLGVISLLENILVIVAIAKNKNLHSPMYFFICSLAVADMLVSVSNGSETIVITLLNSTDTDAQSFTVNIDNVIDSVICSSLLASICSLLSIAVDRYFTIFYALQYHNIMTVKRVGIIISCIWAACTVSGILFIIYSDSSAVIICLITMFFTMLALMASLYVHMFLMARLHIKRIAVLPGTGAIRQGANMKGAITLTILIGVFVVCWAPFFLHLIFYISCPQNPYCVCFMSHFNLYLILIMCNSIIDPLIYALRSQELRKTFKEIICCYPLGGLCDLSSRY
Protocol: Intracellular cyclic AMP (cAMP) levels were determined by an electrochemiluminescence (ECL) assay (Meso Scale Discovery®, Gaithersburg, Md.; referred to hereinafter as MSD). […] Transgenic CHO-K1 cells stably expressing hMC receptor subtypes 1, 3, 4 or 5 were dispensed at a density of approximately 7,000 cells/well in 384-well Multi-Arrays plates (MSD) containing integrated carbon electrodes and coated with anti-CAMP antibody. Increasing concentrations of the test compounds were added and the cells were incubated for approximately 40 minutes at approximately 37° C. […] At the end of the second incubation period read buffer (Tris-buffered solution containing an ECL co-reactant and Triton X-100 at ph 7.8) was added and the cAMP levels in the cell lysates were immediately determined by ECL detection with a Sector Imager 6000 Reader® (MSD). Data were analyzed using a computer-assisted non-linear regression analysis (XL fit; IDBS) and reported as either an EC50 value or a Kb value.
The Kb value reflects the potency of an antagonist and is determined by Schild analysis. In brief, concentration-response curves of an agonist are carried out in the presence of increasing concentrations of an antagonist. […] It is calculated by extrapolating the line on a Schild plot to zero on the y-axis.

hMC3-R [3] = biological target: T3, hMC3-R (Homo sapiens, UniProt P41968); test: cyclic AMP bioassay, hMC3-R; type: cell-based
T3 construct: expressed in transfected cells; host or cells: CHO-K1
T3 sequence (P41968 whole entry): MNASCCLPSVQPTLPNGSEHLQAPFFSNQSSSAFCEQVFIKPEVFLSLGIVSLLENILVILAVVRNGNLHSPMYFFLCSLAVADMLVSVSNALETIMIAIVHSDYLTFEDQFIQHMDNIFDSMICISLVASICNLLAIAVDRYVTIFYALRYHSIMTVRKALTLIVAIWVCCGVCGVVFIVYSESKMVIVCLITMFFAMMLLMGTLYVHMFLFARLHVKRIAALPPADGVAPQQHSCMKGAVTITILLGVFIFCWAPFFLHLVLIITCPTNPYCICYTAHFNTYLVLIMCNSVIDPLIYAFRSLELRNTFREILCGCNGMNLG

hMC3-R [4] = biological target: T3, hMC3-R; test: Radioligand binding assay, hMC3-R
Protocol: (§1) Cellular membranes used for the in vitro receptor binding assays were obtained from transgenic CHO-K1 cells stably expressing hMC-R receptor subtypes 1, 3, 4 or 5. […] The pellets were resuspended in the same buffer and centrifuged at 50,000 g for 10 minutes at approximately 4° C. The washed pellets containing the cellular membranes were stored at approximately −80° C.
(§2) Filters were washed three times with 50 mM Tris-HCl at p-H 7.4 at a temperature of approximately 0-4° C. and then assayed for radioactivity using a Packard Topcount® scintillation counter. Binding data were analyzed by computer-assisted non-linear regression analysis (XL fit; IDBS).

hMC1-R [5] = biological target: T4, hMC1-R (Homo sapiens, UniProt Q01726); test: cyclic AMP bioassay, hMC1-R; type: cell-based
T4 construct: expressed in transfected cells; host or cells: CHO-K1
T4 sequence (Q01726 whole entry): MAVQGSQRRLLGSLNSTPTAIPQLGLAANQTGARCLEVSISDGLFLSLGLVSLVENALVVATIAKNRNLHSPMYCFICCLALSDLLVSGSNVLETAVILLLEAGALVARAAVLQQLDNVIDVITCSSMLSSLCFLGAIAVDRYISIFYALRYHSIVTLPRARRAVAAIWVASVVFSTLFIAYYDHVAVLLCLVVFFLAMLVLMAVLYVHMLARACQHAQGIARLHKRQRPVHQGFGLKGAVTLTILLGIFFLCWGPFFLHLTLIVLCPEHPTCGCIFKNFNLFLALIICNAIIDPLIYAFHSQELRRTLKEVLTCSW

hMC5-R [6] = biological target: T1, hMC5-R; test: Radioligand binding assay, hMC5-R
Protocol: as §1, §2

hMC4-R [7] = biological target: T2, hMC4-R; test: Radioligand binding assay, hMC4-R
Protocol: as §1, §2

hMC1-R [8] = biological target: T4, hMC1-R; test: Radioligand binding assay, hMC1-R
Protocol: as §1, §2

T1 sequence (P33032 whole entry): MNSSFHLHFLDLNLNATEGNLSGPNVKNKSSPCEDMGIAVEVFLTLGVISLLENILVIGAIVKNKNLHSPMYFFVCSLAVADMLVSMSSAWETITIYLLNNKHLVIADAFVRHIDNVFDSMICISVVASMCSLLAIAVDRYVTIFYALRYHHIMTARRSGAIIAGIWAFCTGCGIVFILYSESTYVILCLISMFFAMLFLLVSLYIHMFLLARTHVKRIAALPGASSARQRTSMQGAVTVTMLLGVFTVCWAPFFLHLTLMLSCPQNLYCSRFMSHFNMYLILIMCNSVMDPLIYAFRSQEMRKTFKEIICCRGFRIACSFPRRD

Work on CC(=O)N[C@H]1CSSC[C@@H](C(=O)N2CCC[C@H]2C(=O)N2CCC[C@H]2C(=O)N[C@@H](CCCCN)C(=O)N[C@@H](CC(=O)O)C(=O)NCCC(=O)N[C@@H](Cc2ccc(O)cc2)C(=O)NCC(=O)N[C@@H](CCCNC(=N)N)C(=O)N[C@@H](CCCNC(=N)N)C(=O)N[C@@H](CCCCN)C(=O)N[C@@H](CCCNC(=N)N)C(=O)N[C@@H](CCCNC(=N)N)C(=O)N[C@@H](CCC(N)=O)C(=O)N[C@@H](CCCNC(=N)N)C(=O)N[C@@H](CCCNC(=N)N)C(=O)N[C@@H](CCCNC(=N)N)C(N)=O)NC(=O)[C@H](C)NC(=O)[C@H](Cc2ccc3ccccc3c2)NC(=O)[C@H](CCCNC(=N)N)NC(=O)[C@@H](Cc2ccc3ccccc3c2)NC(=O)[C@H](Cc2c[nH]cn2)NC(=O)[C@H](CCC(=O)O)NC1=O yielded an EC50 (hMC5-R [1]) of 460 nM, a Kb (hMC4-R [2]) of 10.3 nM and a Kb (hMC3-R [3]) of 39.3 nM. The Ki (hMC3-R [4]) was 1.12 nM, the EC50 (hMC1-R [5]) was 58.7 nM and the Ki (hMC5-R [6]) was 15.3 nM.

CCCC[C@H](NC(C)=O)C(=O)N[C@H]1CSSC[C@@H](C(=O)NCCC(=O)N[C@@H](CCCNC(=N)N)C(=O)N[C@@H](CCCCN)C(=O)N[C@@H](CCCNC(=N)N)C(=O)N[C@@H](CCCNC(=N)N)C(=O)N[C@@H](CCCNC(=N)N)C(=O)N[C@@H](CCC(N)=O)C(=O)N[C@@H](CCCNC(=N)N)C(=O)N[C@@H](CCCNC(=N)N)C(=O)N[C@@H](CCCNC(=N)N)C(N)=O)NC(=O)[C@H](Cc2c[nH]c3ccccc23)NC(=O)[C@H](CCCNC(=N)N)NC(=O)[C@@H](Cc2ccccc2)NC(=O)[C@H](Cc2c[nH]cn2)NC(=O)[C@@H](C)NC1=O gave an EC50 (hMC5-R [1]) of 199 nM, an EC50 (hMC4-R [2]) of 0.394 nM and an EC50 (hMC3-R [3]) of 1.61 nM. It also gave a Ki (hMC3-R [4]) of 1.22 nM, a Ki (hMC4-R [7]) of 0.468 nM and an EC50 (hMC1-R [5]) of 2.06 nM. For the same compound, the Ki (hMC5-R [6]) was 47 nM and the Ki (hMC1-R [8]) was 0.778 nM.

CCCC[C@H](NC(C)=O)C(=O)N[C@H]1CSSC[C@@H](C(=O)NCCC(=O)N[C@@H](CCCNC(=N)N)C(=O)N[C@@H](CCCNC(=N)N)C(=O)N[C@@H](CCCCN)C(=O)N[C@@H](CCCNC(=N)N)C(=O)N[C@@H](CCCNC(=N)N)C(=O)N[C@@H](CCC(N)=O)C(=O)N[C@@H](CCCNC(=N)N)C(=O)N[C@@H](CCCNC(=N)N)C(=O)N[C@@H](CCCNC(=N)N)C(N)=O)NC(=O)[C@H](Cc2c[nH]c3ccccc23)NC(=O)[C@H](CCCNC(=N)N)NC(=O)[C@@H](Cc2ccccc2)NC(=O)[C@H](Cc2c[nH]cn2)NC(=O)[C@@H](C)NC1=O gave an EC50 (hMC5-R [1]) of 165 nM, an EC50 (hMC4-R [2]) of 0.367 nM and an EC50 (hMC3-R [3]) of 1.39 nM. The Ki (hMC3-R [4]) was 1.23 nM, the Ki (hMC4-R [7]) was 0.484 nM and the EC50 (hMC1-R [5]) was 1.86 nM. For the same compound, the Ki (hMC5-R [6]) was 58.5 nM and the Ki (hMC1-R [8]) was 0.212 nM.
